# Laboratory results published in patent US10994015B2, “EGFR proteolysis targeting chimeric molecules and associated methods of use” (Arvinas Operations, Inc., priority 2016, dated 2021).
# Experiments:
# [1] = molecular target: EGFR-wt (MDA-MB-231 or MCF7 or A549 or OVCAR8) (Homo sapiens (Human), UniProt P00533); assay: EGFR protein degradation assay (Western blot); format: cell-based; conditions: 72 hours, 300 nM to 10 nM
# Outline: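 EGFR degradation was assessed by Western blot. Cells expressing the appropriate EGFR were seeded in 6-well plates (300,000 cells per well) and adhered overnight. Media was removed, cells were washed with cold phosphate-buffered saline, scraped into 400 μl Cell Signaling lysis buffer plus protease inhibitor cocktail, and spun once at 10 000 rpm for 10 minutes. After BCA quantification, loading buffer and reducing agent were added. Gels loaded with 10 μg protein ran at 165V for 2 hours, and bands were visualized by chemiluminescence.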
# EGFR WT = EGFR WT (Homo sapiens (Human), UniProt P00533); assay: TR-FRET assay for ERBB kinases; format: biochemical; conditions: geometric mean if measured more than once
# Outline: (§1)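 Three-fold DMSO dilution series of each compound is diluted 10-fold into HEPES buffer (pH 7.5, NaCl, MgCl2, DTT, Pluronic). Enzyme is added for a 10 min pre-incubation. ATP/peptide mix (3 mM ATP, 30 uM substrate as added) starts a 10 min room-temperature reaction, halted with EDTA and Tb antibody.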
# EGFR L858R/T790M/C797S = EGFR L858R/T790M/C797S (Homo sapiens (Human), UniProt P00533, C797S/L858R/T790M); assay: TR-FRET assay for ERBB kinases; format: biochemical; conditions: geometric mean if measured more than once
# Outline: as §1
# EGFR L858R/T790M = EGFR L858R/T790M (Homo sapiens (Human), UniProt P00533, L858R/T790M); assay: TR-FRET assay for ERBB kinases; format: biochemical; conditions: geometric mean if measured more than once
# Outline: as §1
# EGFR Exon20NPG = EGFR Exon20NPG (Homo sapiens (Human), UniProt P00533, INS770NPG); assay: TR-FRET assay for ERBB kinases; format: biochemical; conditions: geometric mean if measured more than once
# Outline: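 Phosphorylation of fluorescein-labeled poly-GluTyr read as TR-FRET using Tb-pY20 antibody after EDTA stop, with 340 nm excitation. Kinase reaction ran 10 min at room temperature following 10 min compound pre-incubation; substrate mix held 3 mM ATP and 30 µM peptide before addition. Buffer was HEPES pH 7.5.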
# [2] = molecular target: EGFR L858R/T790M double mutant (H1975) (Homo sapiens (Human), UniProt P00533, L858R/T790M); assay: EGFR protein degradation assay (Western blot); format: cell-based; conditions: 72 hours, 300 nM to 10 nM
# Outline: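 EGFR protein levels were measured by immunoblotting. Lysate protein was quantified by BCA, and 10 μg per sample was separated by SDS/PAGE at 165V for 2 hours and transferred to PVDF. Membranes were blocked in TBS-T with 5% milk for 1 hour, probed overnight at 4° C with EGFR and tubulin antibodies, then secondary antibody for 1 hour, and detected by ECL on a Chemidoc.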
# [3] = molecular target: EGFR L858R/T790M/C797S triple mutant (H520*) (Homo sapiens (Human), UniProt P00533, C797S/L858R/T790M); assay: EGFR protein degradation assay (Western blot); format: cell-based; conditions: 72 hours, 300 nM to 10 nM
# Outline: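 EGFR loss in the triple-mutant line measured by immunoblot: clarified lysates normalised by BCA, run on 4-12% Bis-Tris gels, blotted to PVDF, probed with HRP anti-rabbit secondary. Before lysis, cells were dosed from 1, 0.3, 0.1, 0.03 and 0.01 mM DMSO stocks (not final concentrations) after overnight culture at 37° C.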
# EGFR-wt (MDA-MB-231 or MCF7 or A549 or OVCAR8), sequence (P00533 25-1210): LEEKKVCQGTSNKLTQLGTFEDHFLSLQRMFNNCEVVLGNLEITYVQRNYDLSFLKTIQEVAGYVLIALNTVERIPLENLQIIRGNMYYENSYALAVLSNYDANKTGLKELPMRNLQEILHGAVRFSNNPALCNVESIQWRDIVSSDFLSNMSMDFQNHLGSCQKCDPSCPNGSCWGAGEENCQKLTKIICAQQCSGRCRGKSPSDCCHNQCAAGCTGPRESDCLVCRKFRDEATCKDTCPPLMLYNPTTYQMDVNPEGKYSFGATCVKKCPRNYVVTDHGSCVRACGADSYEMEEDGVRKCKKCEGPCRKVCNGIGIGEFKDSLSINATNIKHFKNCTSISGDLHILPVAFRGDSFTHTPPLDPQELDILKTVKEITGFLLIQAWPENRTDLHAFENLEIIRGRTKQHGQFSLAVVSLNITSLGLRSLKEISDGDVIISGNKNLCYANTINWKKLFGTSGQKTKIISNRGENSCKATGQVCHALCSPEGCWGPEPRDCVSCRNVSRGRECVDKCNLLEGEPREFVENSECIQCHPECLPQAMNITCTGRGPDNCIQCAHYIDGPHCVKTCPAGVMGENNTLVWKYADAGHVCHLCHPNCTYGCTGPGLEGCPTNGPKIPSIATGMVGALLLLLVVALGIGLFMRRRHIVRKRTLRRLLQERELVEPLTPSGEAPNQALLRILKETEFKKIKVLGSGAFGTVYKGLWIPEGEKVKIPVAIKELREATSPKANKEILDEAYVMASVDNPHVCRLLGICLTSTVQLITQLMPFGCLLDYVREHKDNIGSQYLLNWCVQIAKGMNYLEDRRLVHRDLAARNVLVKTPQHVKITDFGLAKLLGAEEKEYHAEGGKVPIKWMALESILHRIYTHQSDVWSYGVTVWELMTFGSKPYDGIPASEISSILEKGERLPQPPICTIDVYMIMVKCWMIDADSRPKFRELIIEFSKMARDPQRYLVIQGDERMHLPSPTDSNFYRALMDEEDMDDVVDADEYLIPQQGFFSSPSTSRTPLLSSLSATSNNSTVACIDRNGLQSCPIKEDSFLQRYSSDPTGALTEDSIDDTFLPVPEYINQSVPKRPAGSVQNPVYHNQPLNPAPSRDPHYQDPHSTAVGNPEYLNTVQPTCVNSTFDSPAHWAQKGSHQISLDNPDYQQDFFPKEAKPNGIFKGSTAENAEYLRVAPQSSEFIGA
# EGFR Exon20NPG, sequence (P00533 other isoform, or with tags, fused parts or gaps del 1-694/ins NPG behind 770 limits assumed): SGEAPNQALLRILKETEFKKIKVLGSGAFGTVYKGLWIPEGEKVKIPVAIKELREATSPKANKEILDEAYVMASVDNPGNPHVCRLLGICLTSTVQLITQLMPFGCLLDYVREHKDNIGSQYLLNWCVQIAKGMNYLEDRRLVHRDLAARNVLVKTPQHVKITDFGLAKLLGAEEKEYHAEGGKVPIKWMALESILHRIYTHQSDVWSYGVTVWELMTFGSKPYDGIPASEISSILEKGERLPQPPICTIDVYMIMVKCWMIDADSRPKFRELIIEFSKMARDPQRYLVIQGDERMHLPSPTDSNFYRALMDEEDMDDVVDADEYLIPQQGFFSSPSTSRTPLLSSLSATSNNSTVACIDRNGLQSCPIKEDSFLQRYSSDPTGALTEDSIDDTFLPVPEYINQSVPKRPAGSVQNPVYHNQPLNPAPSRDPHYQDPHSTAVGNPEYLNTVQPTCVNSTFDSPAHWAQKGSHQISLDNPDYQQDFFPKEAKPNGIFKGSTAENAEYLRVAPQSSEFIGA
# EGFR WT, sequence (P00533 25-1210): as the sequence (P00533 25-1210) above
# EGFR L858R/T790M double mutant (H1975), sequence (P00533 25-1210 T790M/L858R): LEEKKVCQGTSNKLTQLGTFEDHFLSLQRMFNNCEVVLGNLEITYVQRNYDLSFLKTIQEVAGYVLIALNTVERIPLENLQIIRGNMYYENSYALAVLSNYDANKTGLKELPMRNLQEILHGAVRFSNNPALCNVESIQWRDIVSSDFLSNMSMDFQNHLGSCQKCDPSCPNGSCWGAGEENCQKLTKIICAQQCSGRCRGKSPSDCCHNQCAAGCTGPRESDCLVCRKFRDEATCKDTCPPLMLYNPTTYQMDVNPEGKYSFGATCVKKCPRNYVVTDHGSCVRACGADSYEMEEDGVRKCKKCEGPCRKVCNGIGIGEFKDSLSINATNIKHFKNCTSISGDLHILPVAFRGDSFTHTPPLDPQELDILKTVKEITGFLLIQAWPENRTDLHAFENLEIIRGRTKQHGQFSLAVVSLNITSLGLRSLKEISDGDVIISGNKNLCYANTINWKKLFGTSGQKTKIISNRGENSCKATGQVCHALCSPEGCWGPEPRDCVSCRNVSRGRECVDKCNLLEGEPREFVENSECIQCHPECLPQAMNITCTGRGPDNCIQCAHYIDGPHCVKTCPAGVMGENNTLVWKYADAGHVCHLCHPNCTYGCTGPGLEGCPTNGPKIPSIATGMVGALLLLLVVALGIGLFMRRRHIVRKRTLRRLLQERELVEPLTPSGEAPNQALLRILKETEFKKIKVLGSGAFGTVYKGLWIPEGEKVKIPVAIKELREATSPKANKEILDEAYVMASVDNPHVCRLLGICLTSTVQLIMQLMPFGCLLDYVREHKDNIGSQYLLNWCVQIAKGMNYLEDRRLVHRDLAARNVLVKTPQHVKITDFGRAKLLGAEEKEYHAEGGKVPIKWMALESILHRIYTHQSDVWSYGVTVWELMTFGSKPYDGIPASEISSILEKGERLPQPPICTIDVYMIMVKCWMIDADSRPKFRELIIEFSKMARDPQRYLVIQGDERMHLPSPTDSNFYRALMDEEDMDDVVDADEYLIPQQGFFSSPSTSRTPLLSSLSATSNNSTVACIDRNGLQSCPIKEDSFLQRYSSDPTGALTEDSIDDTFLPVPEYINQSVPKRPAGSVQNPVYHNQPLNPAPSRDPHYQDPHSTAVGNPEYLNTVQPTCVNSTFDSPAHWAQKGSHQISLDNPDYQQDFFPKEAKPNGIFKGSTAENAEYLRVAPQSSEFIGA
smiles,measurement,setting,value
"Cc1ncsc1-c1ccc(CNC(=O)[C@@H]2C[C@@H](O)CN2C(=O)[C@@H](NC(=O)COCCOCCOCCOCCOCc2ccc(-c3ccc4ncnc(Nc5ccc(OCc6cccc(F)c6)c(Cl)c5)c4c3)o2)C(C)(C)C)cc1 [Example 320, (2S,4R)-1-((S)-18-(tert-butyl)-1-(5-(4-((3-chloro-4-((3-fluorobenzyl)oxy)phenyl)amino)quinazolin-6-yl)furan-2-yl)-16-oxo-2,5,8,11,14-pentaoxa-17-azanonadecan-19-oyl)-4-hydroxy-N-(4-(4-methylthiazol-5-yl)benzyl)pyrrolidine-2-carboxamide]","EGFR protein remaining, EGFR-wt",[1],A (≤50% EGFR protein remaining after 72 hours of incubation with the test compound at a concentration between 300 nM and 10 nM)
"Cc1ncsc1-c1ccc(CNC(=O)[C@H]2C[C@H](O)CN2C(=O)[C@@H](NC(=O)COCCOCCOc2ccc(-c3ccc4ncnc(Nc5ccc(OCc6cccc(F)c6)c(Cl)c5)c4c3)cc2)C(C)(C)C)cc1 [Example 98, (2R,4S)-1-((S)-2-(2-(2-(2-(4-(4-((3-Chloro-4-((3-fluorobenzyl)oxy)phenyl)amino)quinazolin-6-yl)phenoxy)ethoxy)ethoxy)acetamido)-3,3-dimethylbutanoyl)-4-hydroxy-N-(4-(4-methylthiazol-5-yl)benzyl)pyrrolidine-2-carboxamide]","EGFR protein remaining, EGFR-wt",[1],C (>80% EGFR protein remaining after 72 hours of incubation with the test compound at a concentration of 300 nM)
"Cc1ncsc1-c1ccc(CNC(=O)[C@@H]2C[C@H](O)CN2C(=O)[C@@H](NC(=O)COCCOCCOCCOc2ccc(-c3ccc4ncnc(Nc5ccc(OCc6cccc(F)c6)c(Cl)c5)c4c3)cc2)C(C)(C)C)cc1 [Example 100, (2S,4S)-1-((S)-2-(tert-Butyl)-14-(4-(4-((3-chloro-4-((3-fluorobenzyl)oxy)phenyl)amino)quinazolin-6-yl)phenoxy)-4-oxo-6,9,12-trioxa-3-azatetradecanoyl)-4-hydroxy-N-(4-(4-methylthiazol-5-yl)benzyl)pyrrolidine-2-carboxamide]","EGFR protein remaining, EGFR-wt",[1],C (>80% EGFR protein remaining after 72 hours of incubation with the test compound at a concentration of 300 nM)
"Cc1ncsc1-c1ccc(CNC(=O)[C@@H]2C[C@@H](O)CN2C(=O)[C@@H](NC(=O)COCCOCCOCCOc2ccc(-c3ccc4ncnc(Nc5ccc(OCc6cccc(F)c6)c(Cl)c5)c4c3)cc2)C(C)(C)C)cc1 [Example 99, (2S,4R)-1-((S)-2-(tert-Butyl)-14-(4-(4-((3-chloro-4-((3-fluorobenzyl)oxy)phenyl)amino)quinazolin-6-yl)phenoxy)-4-oxo-6,9,12-trioxa-3-azatetradecanoyl)-4-hydroxy-N-(4-(4-methylthiazol-5-yl)benzyl)pyrrolidine-2-carboxamide]","EGFR protein remaining, EGFR-wt",[1],A (≤50% EGFR protein remaining after 72 hours of incubation with the test compound at a concentration between 300 nM and 10 nM)
Cc1ncsc1-c1ccc(CNC(=O)[C@@H]2C[C@@H](O)CN2C(=O)[C@H](C(C)C)N2Cc3ccccc3C2=O)c(OCCOCCOCCOCC#Cc2cccc3c2C(=O)N([C@@H](C(=O)Nc2nccs2)c2cc(F)ccc2O)C3)c1 [compound 258],IC50,EGFR WT,1.7 µM
same,IC50,EGFR L858R/T790M/C797S,4 µM
same,IC50,EGFR L858R/T790M,5.9 µM
same,IC50,EGFR Exon20NPG,4.9 µM
same,"EGFR protein remaining, EGFR L858R/T790M double mutant",[2],C (>80% EGFR protein remaining after 72 hours of incubation with the test compound at a concentration of 300 nM)
same,"EGFR protein remaining, EGFR L858R/T790M/C797S triple mutant",[3],C (>80% EGFR protein remaining after 72 hours of incubation with the test compound at a concentration of 300 nM)
